As usually defined, the pEC50 is the EC50 on a negative log10 scale, so that one unit is a factor of ten.

This passage reports EC50 results from patent US20200354426A1 (MEDIMMUNE LIMITED, priority 2016, published 2020).

pEC50: −log10 of the molar value. Numbered stars: 1 amine (or outer) side, 2 acyl side, 3 side chain; on linkers, the order of the positions; unused ones are H or OH. Side chains are listed from the residue outwards. Ends that are not written are not given here. Peptide text beside a SMILES is read from it. * marks the point of attachment. γGlu = O=C(O)[C@H](CCC(=O)[*:2])N[*:1]; Palmitoyl = CCCCCCCCCCCCCCCC(=O)*; Ahx = NCCCCCC(=O)O

Holding throughout (test): cAMP activity assay in assay medium (assay 1)
Common to all, as to assay type: cell-based

One experiment addresses T1, Human GIPr (Homo sapiens, UniProt P48546).
T1 construct: expressed in transfected cells
T1 sequence (P48546 22-466): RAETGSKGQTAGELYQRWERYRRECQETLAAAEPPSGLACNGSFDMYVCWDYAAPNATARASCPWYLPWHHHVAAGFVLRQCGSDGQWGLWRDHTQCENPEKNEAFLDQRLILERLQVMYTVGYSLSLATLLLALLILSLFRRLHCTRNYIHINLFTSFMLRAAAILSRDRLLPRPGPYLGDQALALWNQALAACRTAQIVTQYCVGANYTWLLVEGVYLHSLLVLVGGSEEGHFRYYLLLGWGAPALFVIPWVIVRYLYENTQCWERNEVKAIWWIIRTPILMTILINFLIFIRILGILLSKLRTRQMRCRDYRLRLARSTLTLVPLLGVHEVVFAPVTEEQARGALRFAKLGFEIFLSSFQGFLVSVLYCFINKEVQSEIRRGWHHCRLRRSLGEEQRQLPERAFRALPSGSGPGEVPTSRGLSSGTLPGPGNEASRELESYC
Conditions: assay medium; Table 4; read-out: hGIPR EC50. The source says:
(§1) Biological Activity of Peptides in Cell-Based cAMP Activity Assay (Assay 1):
(§2) All sample dilutions were made in duplicate.

The target of the next experiment is Human GLP1R (Homo sapiens, UniProt P43220). Also on record: expressed in transfected cells. Conditions: assay medium; Table 4; read-out: hGLP1R EC50.
Sequence of Human GLP1R (P43220 24-463): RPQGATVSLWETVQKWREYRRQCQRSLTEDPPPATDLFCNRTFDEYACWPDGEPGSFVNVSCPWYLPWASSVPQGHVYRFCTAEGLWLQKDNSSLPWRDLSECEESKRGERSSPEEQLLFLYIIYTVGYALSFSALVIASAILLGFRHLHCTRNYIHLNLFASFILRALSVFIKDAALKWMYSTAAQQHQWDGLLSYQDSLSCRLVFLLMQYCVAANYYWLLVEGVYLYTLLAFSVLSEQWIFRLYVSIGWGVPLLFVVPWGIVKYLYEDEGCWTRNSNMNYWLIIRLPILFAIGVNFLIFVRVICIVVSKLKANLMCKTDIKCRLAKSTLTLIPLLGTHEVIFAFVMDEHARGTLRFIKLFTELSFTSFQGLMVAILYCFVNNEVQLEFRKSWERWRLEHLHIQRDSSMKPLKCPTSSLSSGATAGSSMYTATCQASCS
Text: as §1, §2

The next experiment deals with T2, Human GlucR (Homo sapiens, UniProt P47871).
T2 construct: expressed in transfected cells
T2 sequence (P47871 26-477): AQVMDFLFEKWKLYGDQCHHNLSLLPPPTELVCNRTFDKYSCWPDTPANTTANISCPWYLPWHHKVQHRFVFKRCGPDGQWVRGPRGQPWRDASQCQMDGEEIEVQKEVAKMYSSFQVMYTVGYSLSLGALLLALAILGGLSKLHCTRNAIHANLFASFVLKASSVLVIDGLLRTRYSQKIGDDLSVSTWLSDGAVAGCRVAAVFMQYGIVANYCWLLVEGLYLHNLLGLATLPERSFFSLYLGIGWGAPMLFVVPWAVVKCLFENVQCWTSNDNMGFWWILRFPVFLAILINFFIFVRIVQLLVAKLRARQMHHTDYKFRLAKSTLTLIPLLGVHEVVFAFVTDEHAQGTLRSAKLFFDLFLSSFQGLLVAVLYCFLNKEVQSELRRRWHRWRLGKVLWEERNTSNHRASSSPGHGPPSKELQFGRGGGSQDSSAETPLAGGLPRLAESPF
As to conditions: assay medium; Table 4; read-out: hGlucR EC50.
Text: as §1, §2

As for `CCCCCCCCCCCCCCCC(=O)N[C@@H](CCC(=O)NCCCC[C@H](NC(=O)[C@H](Cc1ccc(O)cc1)NC(=O)[C@H](CCCCN)NC(=O)[C@H](CO)NC(=O)[C@H](Cc1ccc(O)cc1)NC(=O)[C@H](CC(=O)O)NC(=O)[C@H](CO)NC(=O)[C@@H](NC(=O)[C@H](Cc1ccccc1)NC(=O)[C@@H](NC(=O)CNC(=O)[C@H](CCC(N)=O)NC(=O)[C@H](CO)NC(=O)[C@@H](N)Cc1c[nH]cn1)[C@@H](C)O)[C@@H](C)O)C(=O)N[C@@H](CC(=O)O)C(=O)N[C@@H](CO)C(=O)N[C@@H](CCCNC(=N)N)C(=O)N[C@@H](CCCNC(=N)N)C(=O)N[C@@H](C)C(=O)N[C@@H](CCC(N)=O)C(=O)N[C@@H](CC(=O)O)C(=O)N[C@@H](Cc1ccccc1)C(=O)N[C@H](C(=O)N[C@@H](CCC(N)=O)C(=O)N[C@@H](Cc1c[nH]c2ccccc12)C(=O)N[C@@H](CC(C)C)C(=O)N[C@@H](CCC(=O)O)C(=O)N[C@@H](C)C(=O)NCC(=O)NCC(N)=O)C(C)C)C(=O)O` [g601] (H-HSQGTFTSDYSKYK([γGlu-Palmitoyl])DSRRAQDFVQWLEAGG-NH2; N-terminus assumed), the results for the pEC50 at Human GIPr and at Human GLP1R were 7.13 and 10.40, respectively.
For `CCCCCCCCCCCCCCCC(=O)NCCCCCC(=O)NCCCC[C@H](NC(=O)[C@H](CO)NC(=O)[C@H](CC(=O)O)NC(=O)[C@H](CC(C)C)NC(=O)[C@H](Cc1ccc(O)cc1)NC(=O)[C@H](CCC(=O)O)NC(=O)[C@H](CO)NC(=O)[C@H](Cc1ccc(O)cc1)NC(=O)[C@H](CC(=O)O)NC(=O)[C@H](CO)NC(=O)[C@@H](NC(=O)[C@H](Cc1ccccc1)NC(=O)[C@@H](NC(=O)CNC(=O)[C@H](CCC(N)=O)NC(=O)CNC(=O)[C@@H](N)Cc1c[nH]cn1)[C@@H](C)O)[C@@H](C)O)C(=O)N[C@@H](CCCNC(=N)N)C(=O)N[C@@H](C)C(=O)N[C@@H](C)C(=O)N[C@@H](CC(=O)O)C(=O)N[C@@H](Cc1ccccc1)C(=O)N[C@H](C(=O)N[C@@H](C)C(=O)N[C@@H](Cc1c[nH]c2ccccc12)C(=O)N[C@@H](CC(C)C)C(=O)N[C@@H](CCC(=O)O)C(=O)N[C@@H](CCCNC(=N)N)C(=O)NCC(=O)NCC(N)=O)C(C)C` [g683], in that order: 6.90 and 10.80.
`CCCCCCCCCCCCCCCC(=O)N[C@@H](CCC(=O)NCCCC[C@H](NC(=O)[C@H](CO)NC(=O)[C@H](CC(=O)O)NC(=O)[C@H](CC(C)C)NC(=O)[C@H](Cc1ccc(O)cc1)NC(=O)[C@H](CCCCN)NC(=O)[C@H](CO)NC(=O)[C@H](Cc1ccc(O)cc1)NC(=O)[C@H](CC(=O)O)NC(=O)[C@H](CO)NC(=O)[C@@H](NC(=O)[C@H](Cc1ccccc1)NC(=O)[C@@H](NC(=O)CNC(=O)[C@H](CCC(N)=O)NC(=O)CNC(=O)[C@@H](N)Cc1c[nH]cn1)[C@@H](C)O)[C@@H](C)O)C(=O)N[C@@H](CCCNC(=N)N)C(=O)N[C@@H](C)C(=O)N[C@@H](C)C(=O)N[C@@H](CC(=O)O)C(=O)N[C@@H](Cc1ccccc1)C(=O)N[C@H](C(=O)N[C@@H](C)C(=O)N[C@@H](Cc1c[nH]c2ccccc12)C(=O)N[C@@H](CC(C)C)C(=O)N[C@H](C(=O)N[C@@H](C)C(=O)NCC(=O)NCC(N)=O)C(C)C)C(C)C)C(=O)O` [g736] (H-HGQGTFTSDYSKYLDSK([γGlu-Palmitoyl])RAADFVAWLVAGG-NH2; N-terminus assumed): the pEC50 is 9.04 on Human GlucR and 10.07 at Human GLP1R.
For `CCCCCCCCCCCCCCCC(=O)N[C@@H](CCC(=O)NCCCC[C@H](NC(=O)[C@H](CO)NC(=O)[C@H](CC(=O)O)NC(=O)[C@H](CC(C)C)NC(=O)[C@H](Cc1ccc(O)cc1)NC(=O)[C@H](CCCCN)NC(=O)[C@H](CO)NC(=O)[C@H](Cc1ccc(O)cc1)NC(=O)[C@H](CC(=O)O)NC(=O)[C@H](CO)NC(=O)[C@@H](NC(=O)[C@H](Cc1ccccc1)NC(=O)[C@@H](NC(=O)CNC(=O)[C@H](CCC(=O)O)NC(=O)CNC(=O)[C@@H](N)Cc1c[nH]cn1)[C@@H](C)O)[C@@H](C)O)C(=O)N[C@@H](CCCNC(=N)N)C(=O)N[C@@H](C)C(=O)N[C@@H](C)C(=O)N[C@@H](CC(=O)O)C(=O)N[C@@H](Cc1ccccc1)C(=O)N[C@H](C(=O)N[C@@H](C)C(=O)N[C@@H](Cc1c[nH]c2ccccc12)C(=O)N[C@@H](CC(C)C)C(=O)N[C@H](C(=O)N[C@@H](C)C(=O)NCC(=O)NCC(N)=O)C(C)C)C(C)C)C(=O)O` [g737] (H-HGEGTFTSDYSKYLDSK([γGlu-Palmitoyl])RAADFVAWLVAGG-NH2; N-terminus assumed), in that order: 6.13 and 10.09.
For `CCCCCCCCCCCCCCCC(=O)N[C@@H](CCC(=O)NCCCC[C@H](NC(=O)[C@H](C)NC(=O)[C@H](CCCNC(=N)N)NC(=O)[C@H](CCCNC(=N)N)NC(=O)[C@H](CO)NC(=O)[C@H](CC(=O)O)NC(=O)[C@H](CC(C)C)NC(=O)[C@H](Cc1ccc(O)cc1)NC(=O)[C@H](CCCCN)NC(=O)[C@H](CO)NC(=O)[C@H](Cc1ccc(O)cc1)NC(=O)[C@H](CC(=O)O)NC(=O)[C@H](CO)NC(=O)[C@@H](NC(=O)[C@H](Cc1ccccc1)NC(=O)[C@@H](NC(=O)CNC(=O)[C@H](CCC(N)=O)NC(=O)[C@H](CO)NC(=O)[C@@H](N)Cc1c[nH]cn1)[C@@H](C)O)[C@@H](C)O)C(=O)N[C@@H](CC(=O)O)C(=O)N[C@@H](Cc1ccccc1)C(=O)N[C@H](C(=O)N[C@@H](CCC(N)=O)C(=O)N[C@@H](Cc1c[nH]c2ccccc12)C(=O)N[C@@H](CC(C)C)C(=O)N[C@@H](CCC(=O)O)C(=O)N[C@@H](C)C(=O)NCC(=O)NCC(N)=O)C(C)C)C(=O)O` [g744] the same measures were 10.41 and 8.61.
For `CCCCCCCCCCCCCCCC(=O)N[C@@H](CCC(=O)NCCCC[C@H](NC(=O)[C@@H](NC(=O)[C@H](Cc1ccccc1)NC(=O)[C@H](CC(=O)O)NC(=O)[C@H](CCC(N)=O)NC(=O)[C@H](C)NC(=O)[C@H](CCCNC(=N)N)NC(=O)[C@H](CCCNC(=N)N)NC(=O)[C@H](CO)NC(=O)[C@H](CC(=O)O)NC(=O)[C@H](CC(C)C)NC(=O)[C@H](Cc1ccc(O)cc1)NC(=O)[C@H](CCCCN)NC(=O)[C@H](CO)NC(=O)[C@H](Cc1ccc(O)cc1)NC(=O)[C@H](CC(=O)O)NC(=O)[C@H](CO)NC(=O)[C@@H](NC(=O)[C@H](Cc1ccccc1)NC(=O)[C@@H](NC(=O)CNC(=O)[C@H](CCC(N)=O)NC(=O)[C@H](CO)NC(=O)[C@@H](N)Cc1c[nH]cn1)[C@@H](C)O)[C@@H](C)O)C(C)C)C(=O)N[C@@H](Cc1c[nH]c2ccccc12)C(=O)N[C@@H](CC(C)C)C(=O)N[C@@H](CCC(=O)O)C(=O)N[C@@H](C)C(=O)NCC(=O)NCC(N)=O)C(=O)O` [g746], in that order: 10.45 and 7.94.
On to `CCCCCCCCCCCCCCCC(=O)NCCCCCC(=O)NCCCC[C@H](NC(=O)[C@H](C)NC(=O)[C@H](CCCNC(=N)N)NC(=O)[C@H](CCC(=O)O)NC(=O)[C@H](CO)NC(=O)[C@H](CC(=O)O)NC(=O)[C@H](CC(C)C)NC(=O)[C@H](Cc1ccc(O)cc1)NC(=O)[C@H](CCCCN)NC(=O)[C@H](CO)NC(=O)[C@H](Cc1ccc(O)cc1)NC(=O)[C@H](CC(=O)O)NC(=O)[C@H](CO)NC(=O)[C@@H](NC(=O)[C@H](Cc1ccccc1)NC(=O)[C@@H](NC(=O)CNC(=O)[C@H](CCC(N)=O)NC(=O)[C@H](CO)NC(=O)[C@@H](N)Cc1c[nH]cn1)[C@@H](C)O)[C@@H](C)O)C(=O)N[C@@H](CC(=O)O)C(=O)N[C@@H](Cc1ccccc1)C(=O)N[C@H](C(=O)N[C@@H](C)C(=O)N[C@@H](Cc1c[nH]c2ccccc12)C(=O)N[C@@H](CC(C)C)C(=O)N[C@@H](CCC(=O)O)C(=O)N[C@@H](CCCNC(=N)N)C(=O)NCC(=O)NCC(N)=O)C(C)C` [g787] (H-HSQGTFTSDYSKYLDSERAK([Ahx-Palmitoyl])DFVAWLERGG-NH2; N-terminus assumed), for which the figures for the negative-log EC50 (pEC50) at Human GlucR and on Human GLP1R were 10.36 and 8.18, respectively.
Turning to `CCCCCCCCCCCCCCCC(=O)N[C@@H](CCC(=O)NCCCC[C@H](NC(=O)[C@H](Cc1ccc(O)cc1)NC(=O)[C@H](CCCNC(=N)N)NC(=O)[C@H](CO)NC(=O)[C@H](Cc1ccc(O)cc1)NC(=O)[C@H](CC(=O)O)NC(=O)[C@H](CO)NC(=O)[C@@H](NC(=O)[C@H](Cc1ccccc1)NC(=O)[C@@H](NC(=O)CNC(=O)[C@H](CCC(N)=O)NC(=O)[C@H](CO)NC(=O)[C@@H](N)Cc1c[nH]cn1)[C@@H](C)O)[C@@H](C)O)C(=O)N[C@@H](CC(=O)O)C(=O)N[C@@H](CO)C(=O)N[C@@H](CCC(=O)O)C(=O)N[C@@H](CCCNC(=N)N)C(=O)N[C@@H](C)C(=O)N[C@@H](CCCNC(=N)N)C(=O)N[C@@H](CC(=O)O)C(=O)N[C@@H](Cc1ccccc1)C(=O)N[C@H](C(=O)N[C@@H](C)C(=O)N[C@@H](Cc1c[nH]c2ccccc12)C(=O)N[C@@H](CC(C)C)C(=O)N[C@H](C(=O)N[C@@H](C)C(=O)NCC(=O)NCC(N)=O)C(C)C)C(C)C)C(=O)O` [g821], the pEC50 on Human GlucR is 11.33; on Human GLP1R, 10.25.
For “HSQGTFTSDYSKYLDSRRAQDFVQWLVRGGPSSGAPPPSK-NH2 [g319]” the same measures were 10.98 and 10.44.
